What all share (type): cell-based
For series [1], the system named is Raji. Put plainly: Inhibition of 12-O-tetradecanoylphorbol-13-acetate induced EBV-early antigen activation in human Raji cells at 1000 molar ratio per 32 pmol/ml TPA by immunofluorescence technique relative to control. Conditions: human gammaherpesvirus 4. More on the design: scale not given: the % may be the effect or the level left.
The test system of series [2] is Raji. Put plainly: Inhibition of 12-O-tetradecanoylphorbol-13-acetate induced EBV-early antigen activation in human Raji cells at 10 molar ratio per 32 pmol/ml TPA by immunofluorescence technique relative to control. Also on record: Activity: scale not given: the % may be the effect or the level left. The conditions noted are these: human gammaherpesvirus 4.
A short description of series [3]: Cytotoxicity against human Raji cells assessed as cell viability at 1000 molar ratio after 48 hrs. Conditions: read-out: Activity.
Series [4] can be described thus: Cytotoxicity against human Raji cells assessed as cell viability at 500 molar ratio after 48 hrs. Conditions: read-out: Activity.

For `CC1(C)C[C@H](O)C2=C(O1)C(=O)c1ccccc1C2=O`, the Activity in the series with Raji [1] worked out at 11.2%. Also, the EBV-EA activation remaining (% of TPA control) with Raji [2] worked out at 86.7%. In addition, the viability at 48 h, 1000 molar ratio in series [3] worked out at 60%.

As for `CC1(C)C[C@H](O)[C@H]2C(=O)c3ccccc3[C@@H](O)[C@@H]2O1`, the Activity with Raji [1] is 0%. Also, the EBV-EA activation remaining (% of TPA control) in the series on Raji [2] is 93.8%. In series [3], the viability at 48 h, 1000 molar ratio amounted to 70%.

With `C=C(C)[C@H]1CC2=C(O1)C(=O)c1c(OC)cccc1C2=O`, the Activity amounted to 0% with Raji [1] and 100% in the series with Raji [2]. Moreover, in series [3], the viability at 48 h, 1000 molar ratio was 60%.

With `CC1=C(/C=C/C(C)=C/C=C/C(C)=C/C=C/C=C(C)/C=C/C=C(C)/C=C/C2=C(C)CCCC2(C)C)C(C)(C)CCC1` [BETA CAROTENE], in the series on Raji [1], the Activity amounted to 8.6%. Further, in the series with Raji [2], the EBV-EA activation remaining (% of TPA control) came out at 100%. For the same compound, the viability at 48 h, 1000 molar ratio in series [3] came to 70%.

Take `COc1cccc2c1C(=O)C1=C(CCC(C)(C)O1)C2=O`: the Activity with Raji [1] was 83.8%. In the series with Raji [2], the EBV-EA activation remaining (% of TPA control) was 100%. Besides, the viability at 48 h, 1000 molar ratio in series [3] was 70%.

Take `COc1cccc2c1C(=O)C1=C(C(=O)CC(C)(C)O1)C2=O`: the Activity in the series on Raji [1] was found to be 32.7%. Further, the EBV-EA activation remaining (% of TPA control) in the series with Raji [2] amounted to 100%. In addition, the viability at 48 h, 1000 molar ratio in series [3] stood at 70%.

With `CC1(C)C[C@H](O)C2=C(O1)C(=O)c1c(O)cccc1C2=O`, the Activity with Raji [1] worked out at 36.1%. The EBV-EA activation remaining (% of TPA control) in the series on Raji [2] came to 100%. The viability at 48 h, 1000 molar ratio in series [3] is 60%.

`CC1(C)CC=C(C2OC(=O)c3ccccc32)C(=O)O1` (stereo not drawn) [CATALPALACTONE]: the Activity in the series on Raji [1] was 0%. Also, the EBV-EA activation remaining (% of TPA control) with Raji [2] was 89.5%. For the same compound, the viability at 48 h, 1000 molar ratio in series [3] turned out to be 70%.

In the case of `C=C(C)[C@@H]1OC2=C(C(=O)c3ccccc3C2=O)[C@@H]1O`, the Activity in the series on Raji [1] is 0%. Besides, in the series on Raji [2], the EBV-EA activation remaining (% of TPA control) stood at 88.5%. Moreover, the viability at 48 h, 1000 molar ratio in series [3] was 30%. The viability at 48 h, 500 molar ratio in series [4] was determined as 60%.

The values above are taken from ChEMBL document CHEMBL1150883, “Antitumor-promoting naphthoquinones from Catalpa ovata” (J Nat Prod, 1998).
